The text below walks through data of BindingDB's records for doi:10.1007/s00044-013-0771-5 (n/a, 2013).

The test addresses Prostaglandin G/H synthase 1/2 (Homo sapiens, UniProt P23219+P35354). Kind of test: Inhibition of COX (unknown origin).

Chain of Prostaglandin G/H synthase 1/2 (P35354 whole entry): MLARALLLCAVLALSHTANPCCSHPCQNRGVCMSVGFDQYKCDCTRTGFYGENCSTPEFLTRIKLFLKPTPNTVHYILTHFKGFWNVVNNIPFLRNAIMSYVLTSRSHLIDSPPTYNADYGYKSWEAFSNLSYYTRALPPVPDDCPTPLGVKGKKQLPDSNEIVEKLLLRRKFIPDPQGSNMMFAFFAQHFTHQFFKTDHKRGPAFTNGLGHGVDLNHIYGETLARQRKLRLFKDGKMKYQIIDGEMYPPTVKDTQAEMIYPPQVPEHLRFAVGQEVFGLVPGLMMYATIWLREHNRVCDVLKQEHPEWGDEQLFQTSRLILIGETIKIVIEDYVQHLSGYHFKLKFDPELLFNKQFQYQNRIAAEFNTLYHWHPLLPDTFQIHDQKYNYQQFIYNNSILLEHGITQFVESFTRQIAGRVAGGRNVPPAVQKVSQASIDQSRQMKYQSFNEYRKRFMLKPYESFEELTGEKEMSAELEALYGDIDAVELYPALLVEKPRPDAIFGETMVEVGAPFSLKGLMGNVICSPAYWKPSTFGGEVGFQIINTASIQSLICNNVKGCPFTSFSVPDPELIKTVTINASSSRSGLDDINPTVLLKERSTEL
Chain of Prostaglandin G/H synthase 1/2 (P23219 whole entry): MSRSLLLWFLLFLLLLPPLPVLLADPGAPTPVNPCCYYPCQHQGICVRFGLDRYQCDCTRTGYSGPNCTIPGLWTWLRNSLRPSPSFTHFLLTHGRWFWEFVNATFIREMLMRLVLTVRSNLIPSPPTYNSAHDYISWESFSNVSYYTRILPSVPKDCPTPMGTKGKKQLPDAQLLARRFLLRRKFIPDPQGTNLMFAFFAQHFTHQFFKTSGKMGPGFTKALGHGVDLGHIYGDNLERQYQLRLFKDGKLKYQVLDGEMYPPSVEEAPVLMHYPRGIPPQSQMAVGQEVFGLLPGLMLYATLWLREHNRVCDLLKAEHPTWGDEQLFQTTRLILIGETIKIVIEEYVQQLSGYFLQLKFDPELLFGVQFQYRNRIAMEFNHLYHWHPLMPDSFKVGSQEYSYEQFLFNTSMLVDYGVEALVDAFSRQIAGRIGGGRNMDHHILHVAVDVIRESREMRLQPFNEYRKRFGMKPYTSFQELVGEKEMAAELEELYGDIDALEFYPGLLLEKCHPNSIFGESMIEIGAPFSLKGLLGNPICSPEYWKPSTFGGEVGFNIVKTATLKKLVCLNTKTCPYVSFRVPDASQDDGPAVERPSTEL

Usually IC50 stands for the concentration at which inhibition is half-maximal. A high value points to a need for much substance. Regarding `O=C(O)Cc1cc(O)ccc1Nc1c(Cl)cccc1Cl` [CHEBI:59612], it took 447 µM to reach half-maximal inhibition (IC50).
The same measure for `O=C(O)Cc1cc(O)ccc1Nc1c(Cl)cc(O)cc1Cl` [CHEBI:223401]: 912 µM.
